Results published in ChEMBL document CHEMBL4406913, “INCB050465 (Parsaclisib), a Novel Next-Generation Inhibitor of Phosphoinositide 3-Kinase Delta (PI3Kδ)” (ACS Med Chem Lett, 2019).
Active and inactive are the calls of the source. The calls are words filed in the database; no cut-off is given here.

Tests used:
Pfeiffer [1] = experiment: Cytotoxicity against human Pfeiffer cells assessed as reduction in cell viability incubated for 4 days by [3H]-thymidine incorporation based liquid scintillation counter method; format: functional
[2] = Permeability across apical to basolateral side in human Caco2 cells at 50 uM incubated for 120 mins by LC/MS analysis; format: ADME, cell-based; conditions: Caco-2, read-out: permeability
[3] = Intrinsic clearance in human liver microsomes at 1 uM measured upto 30 mins by LC/MS analysis; format: ADME, Microsome; conditions: read-out: CLH (converted)
[4] = molecular target: T1, Phosphatidylinositol 4,5-bisphosphate 3-kinase catalytic subunit delta isoform (Homo sapiens, UniProt O00329); experiment: Inhibition of PI3Kdelta (unknown origin) using D-myophosphatidylinositol 4,5-bisphosphate as substrate incubated for 120 mins by [gamma-33P]-ATP based scintillation counting method
T1 sequence (O00329 whole entry): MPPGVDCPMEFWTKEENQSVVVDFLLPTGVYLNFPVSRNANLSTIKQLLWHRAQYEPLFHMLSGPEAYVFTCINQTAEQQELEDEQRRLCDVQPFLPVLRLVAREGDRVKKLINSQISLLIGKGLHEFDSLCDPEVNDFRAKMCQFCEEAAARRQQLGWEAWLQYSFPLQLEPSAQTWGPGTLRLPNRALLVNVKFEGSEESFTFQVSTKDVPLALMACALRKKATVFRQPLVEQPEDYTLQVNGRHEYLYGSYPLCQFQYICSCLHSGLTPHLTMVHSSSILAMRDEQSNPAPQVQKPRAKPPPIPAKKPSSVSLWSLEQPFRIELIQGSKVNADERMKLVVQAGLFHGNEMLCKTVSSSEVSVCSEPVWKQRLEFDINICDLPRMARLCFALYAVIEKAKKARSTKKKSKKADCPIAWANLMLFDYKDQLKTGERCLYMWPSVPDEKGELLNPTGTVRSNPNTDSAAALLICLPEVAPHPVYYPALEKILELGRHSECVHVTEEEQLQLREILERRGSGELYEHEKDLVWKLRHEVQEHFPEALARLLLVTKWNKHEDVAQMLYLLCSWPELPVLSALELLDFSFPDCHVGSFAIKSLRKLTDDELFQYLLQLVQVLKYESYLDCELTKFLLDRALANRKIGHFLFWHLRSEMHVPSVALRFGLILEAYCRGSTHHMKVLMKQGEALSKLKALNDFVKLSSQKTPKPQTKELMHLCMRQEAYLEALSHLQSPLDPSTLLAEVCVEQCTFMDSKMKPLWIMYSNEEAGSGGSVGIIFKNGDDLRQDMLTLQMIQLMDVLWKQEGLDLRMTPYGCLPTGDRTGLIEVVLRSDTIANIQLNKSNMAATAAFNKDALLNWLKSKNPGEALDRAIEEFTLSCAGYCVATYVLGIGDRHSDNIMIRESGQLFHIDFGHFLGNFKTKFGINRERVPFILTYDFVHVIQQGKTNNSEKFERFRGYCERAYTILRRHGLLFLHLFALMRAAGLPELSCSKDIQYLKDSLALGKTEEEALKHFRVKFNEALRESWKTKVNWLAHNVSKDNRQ

[5] = molecular target: Phosphatidylinositol 4,5-bisphosphate 3-kinase catalytic subunit alpha isoform (Homo sapiens, UniProt P42336); experiment: Inhibition of PI3Kalpha (unknown origin) using D-myophosphatidylinositol 4,5-bisphosphate as substrate incubated for 120 mins by [gamma-33P]-ATP based scintillation counting method
[6] = molecular target: Phosphatidylinositol 4,5-bisphosphate 3-kinase catalytic subunit beta isoform (Homo sapiens, UniProt P42338); experiment: Inhibition of PI3Kbeta (unknown origin) using D-myophosphatidylinositol 4,5-bisphosphate as substrate incubated for 120 mins by [gamma-33P]-ATP based scintillation counting method
[7] = molecular target: Voltage-gated inwardly rectifying potassium channel KCNH2 (Homo sapiens, UniProt Q12809); experiment: Inhibition of human ERG expressed in HEK293 cells by voltage patch clamp assay; format: cell-based
[8] = Clearance in rat at 4 mg/kg, iv measured for 24 hrs by LC-MS/MS analysis; format: ADME, organism-based; conditions: in vivo
[9] = Terminal half life in rat at 4 mg/kg, iv measured for 24 hrs by LC-MS/MS analysis; format: ADME, organism-based; conditions: in vivo, read-out: beta t1/2 (converted)
[10] = Volume of distribution at steady state in Beagle dog at 2 mg/kg, iv measured for 24 hrs by LC-MS/MS analysis; format: ADME, organism-based, Canis lupus familiaris; conditions: in vivo, read-out: Vdss
[11] = Oral bioavailability in Beagle dog at 4 mg/kg measured for 24 hrs by LC-MS/MS analysis; format: ADME, organism-based, Canis lupus familiaris; conditions: in vivo
Pfeiffer [12] = experiment: Antitumor activity against human Pfeiffer cells xenografted in SCID mouse assessed as reduction in tumor growth at 1 mg/kg, po bid for 14 days measured 2-3 times weekly by digital caliper method; format: functional, organism-based
Pfeiffer [13] = experiment: In vivo inhibition of PI3Kdelta in human Pfeiffer cells xenografted in SCID mouse assessed as reduction in AKT phosphorylation at Ser473 residue in tumor lysates at 1 mg/kg, po bid for 14 days measured at 4 hrs post last dose by Western blot analysis; format: functional, organism-based; conditions: Neoplasm, Lysate
[14] = Hepatotoxicity in rat measured on day 28; format: toxicity; conditions: in vivo
[15] = Hepatotoxicity in Beagle dog measured on day 28; format: toxicity, Canis lupus familiaris; conditions: in vivo
Cytochrome P450 1A2 = molecular target: T2, Cytochrome P450 1A2 (Homo sapiens, UniProt P05177); experiment: Inhibition of CYP1A2 in human liver microsomes at 0.1 to 25 uM using 7-ethoxyresorufin as substrate by LC/MS analysis; format: ADME
T2 sequence (P05177 whole entry): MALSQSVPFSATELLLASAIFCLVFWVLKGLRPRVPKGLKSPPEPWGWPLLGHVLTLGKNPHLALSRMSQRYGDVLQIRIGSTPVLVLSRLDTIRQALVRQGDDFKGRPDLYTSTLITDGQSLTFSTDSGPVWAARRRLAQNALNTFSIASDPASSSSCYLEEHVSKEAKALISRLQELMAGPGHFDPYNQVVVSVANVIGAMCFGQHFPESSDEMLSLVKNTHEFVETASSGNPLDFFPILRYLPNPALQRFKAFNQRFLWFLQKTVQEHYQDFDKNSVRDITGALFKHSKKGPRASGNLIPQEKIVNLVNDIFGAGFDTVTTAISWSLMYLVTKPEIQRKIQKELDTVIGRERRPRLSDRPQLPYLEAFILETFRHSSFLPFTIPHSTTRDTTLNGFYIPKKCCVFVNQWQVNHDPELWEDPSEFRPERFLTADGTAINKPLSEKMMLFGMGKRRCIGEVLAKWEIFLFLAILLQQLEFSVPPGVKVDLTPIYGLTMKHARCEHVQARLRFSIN

Cytochrome P450 2C9 = Cytochrome P450 2C9 (Homo sapiens, UniProt P11712); experiment: Inhibition of CYP2C9 in human liver microsomes at 0.1 to 25 uM using diclofenac as substrate by LC/MS analysis; format: ADME
Cytochrome P450 3A4 [16] = molecular target: T3, Cytochrome P450 3A4 (Homo sapiens, UniProt P08684); experiment: Inhibition of CYP3A4 in human liver microsomes at 0.1 to 25 uM using midazolam as substrate by LC/MS analysis; format: ADME
Cytochrome P450 3A4 [17] = molecular target: T3, Cytochrome P450 3A4; experiment: Inhibition of CYP3A4 in human liver microsomes at 0.1 to 25 uM using testosterone as substrate by LC/MS analysis; format: ADME

T3 sequence (P08684 whole entry): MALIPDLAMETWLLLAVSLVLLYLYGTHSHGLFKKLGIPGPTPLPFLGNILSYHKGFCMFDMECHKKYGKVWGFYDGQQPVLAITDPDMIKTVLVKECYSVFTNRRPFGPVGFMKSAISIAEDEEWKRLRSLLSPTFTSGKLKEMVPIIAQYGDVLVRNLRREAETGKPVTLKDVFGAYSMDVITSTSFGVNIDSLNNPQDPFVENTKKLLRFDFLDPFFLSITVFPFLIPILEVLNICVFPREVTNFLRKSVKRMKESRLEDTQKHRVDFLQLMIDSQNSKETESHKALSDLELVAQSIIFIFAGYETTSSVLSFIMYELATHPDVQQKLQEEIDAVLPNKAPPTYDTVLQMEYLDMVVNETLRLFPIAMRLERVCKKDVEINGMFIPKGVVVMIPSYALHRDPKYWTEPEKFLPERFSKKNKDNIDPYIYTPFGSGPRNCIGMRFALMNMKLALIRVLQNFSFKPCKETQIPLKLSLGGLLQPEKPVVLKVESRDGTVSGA
Chain of Voltage-gated inwardly rectifying potassium channel KCNH2 (Q12809 whole entry): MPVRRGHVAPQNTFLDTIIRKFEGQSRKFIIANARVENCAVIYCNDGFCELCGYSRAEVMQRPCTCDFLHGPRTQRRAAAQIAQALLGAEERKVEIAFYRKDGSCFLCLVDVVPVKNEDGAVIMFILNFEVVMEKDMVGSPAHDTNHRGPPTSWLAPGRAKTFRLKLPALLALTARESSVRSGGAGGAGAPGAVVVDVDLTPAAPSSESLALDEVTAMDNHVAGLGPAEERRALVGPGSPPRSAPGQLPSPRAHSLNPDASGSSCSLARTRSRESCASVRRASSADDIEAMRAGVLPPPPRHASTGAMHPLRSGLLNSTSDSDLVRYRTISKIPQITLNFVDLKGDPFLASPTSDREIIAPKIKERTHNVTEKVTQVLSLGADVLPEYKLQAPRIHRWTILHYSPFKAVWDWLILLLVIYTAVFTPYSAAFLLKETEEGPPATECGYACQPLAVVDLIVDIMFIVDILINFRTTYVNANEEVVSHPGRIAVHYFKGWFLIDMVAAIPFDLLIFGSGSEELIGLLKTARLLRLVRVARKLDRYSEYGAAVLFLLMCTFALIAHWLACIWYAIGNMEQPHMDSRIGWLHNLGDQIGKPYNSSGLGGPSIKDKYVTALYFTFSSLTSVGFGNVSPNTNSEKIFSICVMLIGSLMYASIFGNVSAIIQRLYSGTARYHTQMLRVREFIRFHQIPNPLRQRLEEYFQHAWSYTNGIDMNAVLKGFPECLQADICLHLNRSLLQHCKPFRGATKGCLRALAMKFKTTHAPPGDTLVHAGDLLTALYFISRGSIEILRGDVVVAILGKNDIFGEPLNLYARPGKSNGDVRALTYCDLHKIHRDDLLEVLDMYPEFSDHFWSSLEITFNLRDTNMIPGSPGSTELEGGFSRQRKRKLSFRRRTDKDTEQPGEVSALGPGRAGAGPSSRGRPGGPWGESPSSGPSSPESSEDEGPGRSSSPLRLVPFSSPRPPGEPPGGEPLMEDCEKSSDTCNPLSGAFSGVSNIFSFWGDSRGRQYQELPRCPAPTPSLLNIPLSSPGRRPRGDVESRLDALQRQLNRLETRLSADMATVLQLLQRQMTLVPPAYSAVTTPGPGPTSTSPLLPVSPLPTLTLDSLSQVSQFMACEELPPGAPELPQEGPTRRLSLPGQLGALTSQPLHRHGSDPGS
Chain of Phosphatidylinositol 4,5-bisphosphate 3-kinase catalytic subunit alpha isoform (P42336 whole entry, canonical isoform): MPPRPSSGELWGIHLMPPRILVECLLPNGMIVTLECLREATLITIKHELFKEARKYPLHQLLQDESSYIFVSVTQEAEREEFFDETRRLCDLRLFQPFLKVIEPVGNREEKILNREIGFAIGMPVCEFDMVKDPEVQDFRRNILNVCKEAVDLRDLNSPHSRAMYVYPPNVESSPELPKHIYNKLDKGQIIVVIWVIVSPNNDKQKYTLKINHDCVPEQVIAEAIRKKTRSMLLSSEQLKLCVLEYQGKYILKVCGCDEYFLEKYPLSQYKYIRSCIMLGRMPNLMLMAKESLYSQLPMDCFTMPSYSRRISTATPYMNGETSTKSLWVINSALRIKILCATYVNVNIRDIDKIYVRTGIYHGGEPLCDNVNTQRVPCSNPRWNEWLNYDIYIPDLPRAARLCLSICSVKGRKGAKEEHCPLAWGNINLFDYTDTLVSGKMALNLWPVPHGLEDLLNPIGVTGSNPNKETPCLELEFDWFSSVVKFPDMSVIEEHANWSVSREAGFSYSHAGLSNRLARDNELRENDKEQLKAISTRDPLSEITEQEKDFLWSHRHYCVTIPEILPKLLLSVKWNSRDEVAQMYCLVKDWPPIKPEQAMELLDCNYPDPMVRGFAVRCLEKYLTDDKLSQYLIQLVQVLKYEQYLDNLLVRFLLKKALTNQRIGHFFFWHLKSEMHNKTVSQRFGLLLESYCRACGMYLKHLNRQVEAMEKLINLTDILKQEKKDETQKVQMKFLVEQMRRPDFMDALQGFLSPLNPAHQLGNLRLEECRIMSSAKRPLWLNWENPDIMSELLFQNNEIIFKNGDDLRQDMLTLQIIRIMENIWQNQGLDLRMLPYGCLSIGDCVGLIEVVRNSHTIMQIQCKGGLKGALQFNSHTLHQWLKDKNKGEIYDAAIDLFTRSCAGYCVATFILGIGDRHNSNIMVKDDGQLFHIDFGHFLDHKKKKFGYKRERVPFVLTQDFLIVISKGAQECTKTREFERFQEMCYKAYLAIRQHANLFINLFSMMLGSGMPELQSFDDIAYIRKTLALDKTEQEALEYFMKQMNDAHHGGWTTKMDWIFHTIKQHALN
Chain of Phosphatidylinositol 4,5-bisphosphate 3-kinase catalytic subunit beta isoform (P42338 whole entry, canonical isoform): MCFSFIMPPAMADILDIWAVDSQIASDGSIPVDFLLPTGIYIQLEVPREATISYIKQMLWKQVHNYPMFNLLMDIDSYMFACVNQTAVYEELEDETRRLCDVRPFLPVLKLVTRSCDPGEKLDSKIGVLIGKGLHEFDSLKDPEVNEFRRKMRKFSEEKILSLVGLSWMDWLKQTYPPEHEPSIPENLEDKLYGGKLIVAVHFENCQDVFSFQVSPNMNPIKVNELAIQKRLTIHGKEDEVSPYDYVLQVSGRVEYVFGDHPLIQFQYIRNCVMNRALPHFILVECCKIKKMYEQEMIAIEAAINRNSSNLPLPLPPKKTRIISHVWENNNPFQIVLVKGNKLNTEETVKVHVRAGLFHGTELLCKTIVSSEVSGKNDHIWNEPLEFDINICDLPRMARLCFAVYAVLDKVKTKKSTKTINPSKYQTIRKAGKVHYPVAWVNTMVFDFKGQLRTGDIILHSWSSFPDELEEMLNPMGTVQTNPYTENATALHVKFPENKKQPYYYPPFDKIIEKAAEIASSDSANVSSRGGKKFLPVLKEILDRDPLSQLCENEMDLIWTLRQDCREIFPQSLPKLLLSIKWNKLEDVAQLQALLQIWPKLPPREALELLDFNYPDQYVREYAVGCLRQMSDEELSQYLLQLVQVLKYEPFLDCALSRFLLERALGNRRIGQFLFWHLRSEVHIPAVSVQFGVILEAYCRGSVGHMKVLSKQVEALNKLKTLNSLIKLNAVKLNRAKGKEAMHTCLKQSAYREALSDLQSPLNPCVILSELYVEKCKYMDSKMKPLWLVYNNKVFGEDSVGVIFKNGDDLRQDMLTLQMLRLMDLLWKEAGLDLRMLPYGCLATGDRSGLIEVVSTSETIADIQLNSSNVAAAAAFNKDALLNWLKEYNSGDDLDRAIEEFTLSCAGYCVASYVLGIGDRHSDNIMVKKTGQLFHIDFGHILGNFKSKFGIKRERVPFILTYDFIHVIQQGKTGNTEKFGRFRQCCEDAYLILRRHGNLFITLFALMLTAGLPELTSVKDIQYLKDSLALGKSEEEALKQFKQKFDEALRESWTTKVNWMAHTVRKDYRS
Chain of Cytochrome P450 2C9 (P11712 whole entry): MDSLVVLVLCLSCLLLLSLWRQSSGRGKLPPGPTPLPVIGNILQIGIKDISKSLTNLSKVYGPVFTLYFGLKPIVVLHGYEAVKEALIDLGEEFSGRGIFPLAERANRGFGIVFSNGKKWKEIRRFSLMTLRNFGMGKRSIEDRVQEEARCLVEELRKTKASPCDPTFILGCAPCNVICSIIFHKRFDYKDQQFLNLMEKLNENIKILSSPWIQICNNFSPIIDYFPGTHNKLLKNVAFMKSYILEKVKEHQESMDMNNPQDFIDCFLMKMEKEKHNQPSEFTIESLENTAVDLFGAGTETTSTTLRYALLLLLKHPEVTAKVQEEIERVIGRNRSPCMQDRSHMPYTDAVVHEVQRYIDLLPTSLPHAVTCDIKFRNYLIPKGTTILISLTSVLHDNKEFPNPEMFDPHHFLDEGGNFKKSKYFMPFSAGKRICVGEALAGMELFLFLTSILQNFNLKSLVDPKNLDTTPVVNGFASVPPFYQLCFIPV

Papp A→B at 2 h, 50 µM [2]: 10 nm/s
CLint scaled at 1 µM [3]: 0.7 L/h/kg
IC50 [4]: 0.0011 µM
IC50 [5]: > 20 µM
IC50 [6]: > 20 µM
CL [8]: 26%
half-life [9]: 4 h
Vd [10]: 0.32 L/kg
bioavailability [11]: 100%
inhibition (INH) (Cytochrome P450 1A2): Not Active
inhibition (INH) (Cytochrome P450 2C9): Not Active
inhibition (INH) (Cytochrome P450 3A4 [16]): Not Active
inhibition (INH) (Cytochrome P450 3A4 [17]): Not Active
Structure (SMILES): CCOc1c([C@H](C)n2nc(C)c3c(N)ncnc32)cc(Cl)c(F)c1[C@@H]1CNC(=O)C1 [PARSACLISIB]
IC50 (Pfeiffer [1]): 0.0025 µM
IC50 [7]: 75 µM
inhibition (Pfeiffer [12]): Active
inhibition (Pfeiffer [13]): Active
Activity [14]: Non-Toxic
Activity [15]: Non-Toxic
